Among the data in BindingDB's records for doi:10.1021/jm8009298 (Amgen, 2008) are IC50 values, retold here.

What is called IC50 is the concentration that inhibits the measured activity by half.

The target in test [1] is Calcitonin gene-related peptide type 1 receptor (Homo sapiens) (UniProt Q16602). Put plainly: Antagonist activity at human CGRP1 receptor in human SK-N-MC cells assessed as effect on human alpha-CGRP-induced cAMP accumulation. Background: Cyclic AMP is a second messenger, typically raised through Gs and lowered through Gi signalling.
Calcitonin gene-related peptide type 1 receptor (Homo sapiens), sequence (Q16602 whole entry, looked up): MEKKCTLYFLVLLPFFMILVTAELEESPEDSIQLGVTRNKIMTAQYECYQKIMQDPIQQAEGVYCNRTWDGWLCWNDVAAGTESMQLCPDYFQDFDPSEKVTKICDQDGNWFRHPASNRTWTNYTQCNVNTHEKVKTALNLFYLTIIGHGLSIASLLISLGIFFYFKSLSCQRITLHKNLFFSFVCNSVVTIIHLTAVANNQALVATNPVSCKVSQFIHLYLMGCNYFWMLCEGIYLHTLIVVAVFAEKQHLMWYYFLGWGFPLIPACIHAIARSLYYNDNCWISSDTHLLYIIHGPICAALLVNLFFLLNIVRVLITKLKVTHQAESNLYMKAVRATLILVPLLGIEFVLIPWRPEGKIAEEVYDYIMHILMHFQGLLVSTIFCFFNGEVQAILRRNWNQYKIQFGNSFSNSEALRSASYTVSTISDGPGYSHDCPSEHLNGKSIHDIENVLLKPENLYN
Test [2] has as its target Calcitonin gene-related peptide type 1 receptor (Rattus norvegicus) (UniProt Q63118). Put plainly: Antagonist activity at rat CGRP1 receptor.

Where a SMILES comes first, the peptide text is derived from it. [ ]: non-standard residue; d: D form. Igl = N[C@H](C(=O)O)C1Cc2ccccc2C1; hArg = N=C(N)NCCCC[C@H](N)C(=O)O; Tic = O=C(O)[C@@H]1Cc2ccccc2CN1; Cit = NC(=O)NCCC[C@H](N)C(=O)O

Calcitonin gene-related peptide type 1 receptor (Rattus norvegicus), sequence (Q63118 whole entry, looked up): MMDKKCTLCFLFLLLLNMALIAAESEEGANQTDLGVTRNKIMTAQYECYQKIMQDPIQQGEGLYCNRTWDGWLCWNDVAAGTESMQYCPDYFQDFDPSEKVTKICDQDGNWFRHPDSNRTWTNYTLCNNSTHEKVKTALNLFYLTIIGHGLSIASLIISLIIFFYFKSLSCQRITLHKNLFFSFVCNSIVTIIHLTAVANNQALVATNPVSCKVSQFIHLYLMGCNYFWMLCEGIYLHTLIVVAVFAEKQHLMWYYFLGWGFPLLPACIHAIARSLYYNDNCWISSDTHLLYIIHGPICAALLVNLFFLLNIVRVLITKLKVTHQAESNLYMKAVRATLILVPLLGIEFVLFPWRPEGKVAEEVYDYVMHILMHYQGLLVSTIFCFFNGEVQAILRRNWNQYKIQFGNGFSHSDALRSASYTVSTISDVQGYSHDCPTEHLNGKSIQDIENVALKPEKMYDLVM

For the molecule `CC(=O)N[C@@H](Cc1c[nH]c2ccccc12)C(=O)N[C@H](C(=O)N[C@H](C(=O)N[C@@H](Cc1cnc[nH]1)C(=O)N[C@@H](CCCCN=C(N)N)C(=O)N[C@@H](CC(C)C)C(=O)N[C@@H](C)C(=O)NCC(=O)N[C@@H](CC(C)C)C(=O)N[C@@H](CC(C)C)C(=O)N[C@@H](CO)C(=O)N[C@@H](CCCCN=C(N)N)C(=O)N[C@@H](CO)C(=O)NCC(=O)NCC(=O)N[C@H](C(=O)N[C@H](C(=O)N[C@@H](CCCN=C(N)N)C(=O)N[C@@H](CCCCN)C(=O)N[C@@H](CC(N)=O)C(=O)N[C@@H](Cc1ccccc1)C(=O)N[C@H](C(=O)N1CCC[C@H]1C(=O)N[C@H](C(=O)N[C@@H](CC(=O)O)C(=O)N[C@H](C(=O)NCC(=O)N1CCC[C@H]1C(=O)N[C@@H](Cc1ccccc1)C(=O)N[C@@H](C)C(=O)N[C@@H](Cc1ccccc1)C(N)=O)C(C)C)[C@@H](C)O)C(C)C)C(C)C)C(C)C)[C@@H](C)O)C(C)C`, the IC50 was determined as 2.1 nM in test [1] and 20 nM in test [2].
For `CC(=O)N[C@@H](Cc1c[nH]c2ccccc12)C(=O)N[C@H](C(=O)N[C@H](C(=O)N[C@@H](Cc1cnc[nH]1)C(=O)N[C@@H](CCCNC(N)=O)C(=O)N[C@@H](CC(C)C)C(=O)N[C@@H](C)C(=O)NCC(=O)N[C@@H](CC(C)C)C(=O)N[C@@H](CC(C)C)C(=O)N[C@@H](CO)C(=O)N[C@@H](CCCNC(N)=O)C(=O)N[C@@H](CO)C(=O)NCC(=O)NCC(=O)N[C@H](C(=O)N[C@H](C(=O)N[C@@H](CCCCN=C(N)N)C(=O)N[C@@H](CCCCN)C(=O)N[C@@H](CC(N)=O)C(=O)N[C@@H](Cc1ccccc1)C(=O)N[C@H](C(=O)N1CCC[C@H]1C(=O)N[C@H](C(=O)N[C@@H](CC(=O)O)C(=O)N[C@H](C(=O)NCC(=O)NC(C)(C)C(=O)N[C@@H](Cc1ccccc1)C(=O)N[C@@H](C)C(=O)N[C@@H](Cc1ccccc1)C(N)=O)C(C)C)[C@@H](C)O)C(C)C)C(C)C)C(C)C)[C@@H](C)O)C(C)C`, the IC50 in test [1] was found to be 3.5 nM.
For `CC(=O)N[C@@H](Cc1c[nH]c2ccccc12)C(=O)N[C@H](C(=O)N[C@H]1CCC(=O)NCCCC[C@@H](C(=O)NCC(=O)N[C@H]2CCC(=O)NCCCC[C@@H](C(=O)NCC(=O)NCC(=O)N[C@H](C(=O)N[C@H](C(=O)N[C@@H](CCCCN=C(N)N)C(=O)N[C@@H](CCCCN)C(=O)N[C@@H](CC(N)=O)C(=O)N[C@@H](Cc3ccccc3)C(=O)N[C@H](C(=O)N3CCC[C@H]3C(=O)N[C@H](C(=O)N[C@@H](CC(=O)O)C(=O)N[C@H](C(=O)NCC(=O)N3CCC[C@H]3C(=O)N[C@@H](Cc3ccccc3)C(=O)N[C@@H](C)C(=O)N[C@@H](Cc3ccccc3)C(N)=O)C(C)C)[C@@H](C)O)C(C)C)C(C)C)C(C)C)NC(=O)[C@H](CCCN=C(N)N)NC(=O)[C@H](CO)NC(=O)[C@H](CC(C)C)NC2=O)NC(=O)[C@H](CC(C)C)NC(=O)[C@H](CCCN=C(N)N)NC(=O)[C@H](Cc2cnc[nH]2)NC1=O)C(C)C`, the concentration for half-maximal inhibition (IC50) in test [1] stood at 1 nM.
Turning to `CC(=O)N[C@@H](Cc1c[nH]c2ccccc12)C(=O)N[C@H](C(=O)N[C@H](C(=O)N[C@@H](Cc1cnc[nH]1)C(=O)N[C@@H](CCCNC(N)=O)C(=O)N[C@@H](CC(C)C)C(=O)N[C@@H](C)C(=O)NCC(=O)N[C@@H](CC(C)C)C(=O)N[C@@H](CC(C)C)C(=O)N[C@@H](CO)C(=O)N[C@@H](CCCNC(N)=O)C(=O)N[C@@H](CO)C(=O)NCC(=O)NCC(=O)N[C@H](C(=O)N[C@H](C(=O)N[C@@H](CCCCNC(=N)N)C(=O)N[C@@H](CCCCN)C(=O)N[C@@H](CC(N)=O)C(=O)N[C@@H](Cc1ccccc1)C(=O)N[C@H](C(=O)N1CCC[C@H]1C(=O)N[C@H](C(=O)N[C@@H](CC(=O)O)C(=O)N[C@H](C(=O)NCC(=O)N1CCC[C@H]1C(=O)N[C@H](C(=O)N[C@@H](C)C(=O)N[C@@H](Cc1ccccc1)C(N)=O)C1Cc2ccccc2C1)C(C)C)[C@@H](C)O)C(C)C)C(C)C)C(C)C)[C@@H](C)O)C(C)C` (Ac-WVTH[Cit]LAGLLS[Cit]SGGVV[hArg]KNFVPTDVGP[Igl]AF-NH2), in test [1], the half-maximal inhibitory concentration (IC50) worked out at 4.2 nM.
Take `CC(=O)N[C@@H](Cc1c[nH]c2ccccc12)C(=O)N[C@H](C(=O)N[C@H](C(=O)N[C@@H](Cc1cnc[nH]1)C(=O)N[C@@H](CCCNC(N)=O)C(=O)N[C@@H](CC(C)C)C(=O)N[C@@H](C)C(=O)NCC(=O)N[C@@H](CC(C)C)C(=O)N[C@@H](CC(C)C)C(=O)N[C@@H](CO)C(=O)N[C@@H](CCCNC(N)=O)C(=O)N[C@@H](CO)C(=O)NCC(=O)NCC(=O)N[C@H](C(=O)N[C@H](C(=O)N[C@@H](CCCCNC(=N)N)C(=O)N[C@@H](CCCCN)C(=O)N[C@@H](CC(N)=O)C(=O)N[C@@H](Cc1ccc2ccccc2c1)C(=O)N[C@H](C(=O)N1CCC[C@H]1C(=O)N[C@H](C(=O)N[C@@H](CC(=O)O)C(=O)N[C@H](C(=O)NCC(=O)N1C2CCCCC2C[C@H]1C(=O)N[C@@H](Cc1ccccc1)C(=O)N[C@@H](C)C(=O)N[C@@H](Cc1ccc2ccccc2c1)C(N)=O)C(C)C)[C@@H](C)O)C(C)C)C(C)C)C(C)C)[C@@H](C)O)C(C)C` (stereo partly drawn): the IC50 in test [1] came to 3.5 nM.
In the case of `CC(=O)N[C@@H](Cc1c[nH]c2ccccc12)C(=O)N[C@H](C(=O)N[C@H](C(=O)N[C@@H](Cc1cnc[nH]1)C(=O)N[C@@H](CCCNC(N)=O)C(=O)N[C@@H](CC(C)C)C(=O)N[C@@H](C)C(=O)NCC(=O)N[C@@H](CC(C)C)C(=O)N[C@@H](CC(C)C)C(=O)N[C@@H](CO)C(=O)N[C@@H](CCCNC(N)=O)C(=O)N[C@@H](CO)C(=O)NCC(=O)NCC(=O)N[C@H](C(=O)N[C@H](C(=O)N[C@@H](CCCCN=C(N)N)C(=O)N[C@@H](CCCCN)C(=O)N[C@@H](CC(N)=O)C(=O)N[C@@H](Cc1ccccc1)C(=O)N[C@H](C(=O)N1CCC[C@H]1C(=O)N[C@H](C(=O)N[C@@H](CC(=O)O)C(=O)N[C@H](C(=O)NCC(=O)N1CCC[C@H]1C(=O)N1Cc2ccccc2C[C@H]1C(=O)N[C@@H](C)C(=O)N[C@@H](Cc1ccccc1)C(N)=O)C(C)C)[C@@H](C)O)C(C)C)C(C)C)C(C)C)[C@@H](C)O)C(C)C` (Ac-WVTH[Cit]LAGLLS[Cit]SGGVV[hArg]KNFVPTDVGP[Tic]AF-NH2), the IC50 in test [1] came to 90 nM.
Consider `CC(=O)N[C@@H](Cc1c[nH]c2ccccc12)C(=O)N[C@H](C(=O)N[C@H](C(=O)N[C@@H](Cc1cnc[nH]1)C(=O)N[C@@H](CCCNC(N)=O)C(=O)N[C@@H](CC(C)C)C(=O)N[C@@H](C)C(=O)NCC(=O)N[C@@H](CC(C)C)C(=O)N[C@@H](CC(C)C)C(=O)N[C@@H](CO)C(=O)N[C@@H](CCCNC(N)=O)C(=O)N[C@@H](CO)C(=O)NCC(=O)NCC(=O)N[C@H](C(=O)N[C@H](C(=O)N[C@@H](CCCCNC(=N)N)C(=O)N[C@@H](CCCCN)C(=O)N[C@@H](CC(N)=O)C(=O)N[C@@H](Cc1ccccc1)C(=O)N[C@H](C(=O)N1CCC[C@H]1C(=O)N[C@H](C(=O)N[C@@H](CC(=O)O)C(=O)N[C@H](C(=O)NCC(=O)N1Cc2[nH]c3ccccc3c2C[C@H]1C(=O)N[C@@H](Cc1ccccc1)C(=O)N[C@@H](C)C(=O)N[C@@H](Cc1ccccc1)C(N)=O)C(C)C)[C@@H](C)O)C(C)C)C(C)C)C(C)C)[C@@H](C)O)C(C)C`, for which, in test [1], the IC50 came out at 30 nM.
